Test results from the NIST ThermoML archive (doi:10.1016/j.jct.2016.01.019).

Assay: refractive index (other wavelength) (dimensionless); xn = mol fraction of the nth substance listed
Settings: 94.64 kPa, Liquid, Standard Abbe refractometry

OCCCO [propan-1,3-diol] + CC(O)CO
refractive index
Settings | x2 = 0 | x2 = 0.0985 | x2 = 0.2023 | x2 = 0.3015 | x2 = 0.3961 | x2 = 0.5009 | x2 = 0.5961 | x2 = 0.6965 | x2 = 0.7974 | x2 = 0.8985
293.15 K, Wavelength=404.7 nm | 1.45177 | 1.45152 | 1.45117 | 1.45077 | 1.45025 | 1.44969 | 1.44909 | 1.44823 | 1.44738 | 1.44618
293.15 K, Wavelength=435.8 nm | 1.44842 | 1.44817 | 1.44786 | 1.44741 | 1.44688 | 1.44623 | 1.4456 | 1.44492 | 1.44401 | 1.44315
293.15 K, Wavelength=486.1 nm | 1.4444 | 1.44417 | 1.44386 | 1.44341 | 1.4429 | 1.44217 | 1.44132 | 1.44021 | 1.43935 | 1.43821
293.15 K, Wavelength=546.1 nm | 1.44112 | 1.44088 | 1.44041 | 1.44013 | 1.43961 | 1.43884 | 1.43806 | 1.43695 | 1.4362 | 1.43491
293.15 K, Wavelength=587.6 nm | 1.43939 | 1.43913 | 1.43875 | 1.4384 | 1.43788 | 1.43721 | 1.43623 | 1.43524 | 1.43439 | 1.43321
293.15 K, Wavelength=632.8 nm | 1.43781 | 1.43756 | 1.43729 | 1.43683 | 1.43632 | 1.43545 | 1.43467 | 1.43369 | 1.43253 | 1.43168
293.15 K, Wavelength=644 nm | 1.43746 | 1.43722 | 1.43699 | 1.43649 | 1.43597 | 1.43501 | 1.43435 | 1.43334 | 1.43219 | 1.43133
293.15 K, Wavelength=706.5 nm | 1.43577 | 1.43555 | 1.43506 | 1.43479 | 1.43428 | 1.43373 | 1.43315 | 1.43207 | 1.4311 | 1.42985
298.15 K, Wavelength=404.7 nm | 1.45037 | 1.44979 | 1.44932 | 1.4489 | 1.44849 | 1.44768 | 1.44694 | 1.44595 | 1.44515 | 1.44396
298.15 K, Wavelength=435.8 nm | 1.447 | 1.44654 | 1.44606 | 1.44553 | 1.44512 | 1.44432 | 1.4436 | 1.44261 | 1.44156 | 1.44059
298.15 K, Wavelength=486.1 nm | 1.44301 | 1.44246 | 1.44198 | 1.44156 | 1.44107 | 1.44037 | 1.43963 | 1.43868 | 1.43776 | 1.43667
298.15 K, Wavelength=546.1 nm | 1.43975 | 1.43919 | 1.43879 | 1.4383 | 1.43762 | 1.43712 | 1.43618 | 1.43541 | 1.43467 | 1.43341
298.15 K, Wavelength=587.6 nm | 1.43802 | 1.43746 | 1.437 | 1.43658 | 1.43619 | 1.43539 | 1.43469 | 1.43371 | 1.43285 | 1.43168
298.15 K, Wavelength=632.8 nm | 1.43645 | 1.4359 | 1.43532 | 1.43502 | 1.43462 | 1.43383 | 1.43322 | 1.43217 | 1.43136 | 1.43004
298.15 K, Wavelength=644 nm | 1.43611 | 1.43555 | 1.43498 | 1.43455 | 1.43428 | 1.43349 | 1.433 | 1.43183 | 1.43102 | 1.4298
298.15 K, Wavelength=706.5 nm | 1.43441 | 1.43388 | 1.43335 | 1.43299 | 1.4326 | 1.43191 | 1.43129 | 1.43036 | 1.42924 | 1.42812
303.15 K, Wavelength=404.7 nm | 1.44902 | 1.44844 | 1.44795 | 1.44749 | 1.44689 | 1.44619 | 1.44547 | 1.44435 | 1.44351 | 1.44237
303.15 K, Wavelength=435.8 nm | 1.44566 | 1.44521 | 1.44451 | 1.44394 | 1.44353 | 1.44285 | 1.44213 | 1.44101 | 1.44017 | 1.43903
303.15 K, Wavelength=486.1 nm | 1.44168 | 1.44133 | 1.44074 | 1.44019 | 1.43962 | 1.43892 | 1.43821 | 1.43713 | 1.43628 | 1.43516
303.15 K, Wavelength=546.1 nm | 1.43844 | 1.43797 | 1.43739 | 1.43695 | 1.43637 | 1.43567 | 1.43498 | 1.43387 | 1.43316 | 1.43194
303.15 K, Wavelength=587.6 nm | 1.43671 | 1.43615 | 1.43575 | 1.43524 | 1.43466 | 1.43396 | 1.43314 | 1.43216 | 1.43125 | 1.43024
303.15 K, Wavelength=632.8 nm | 1.43514 | 1.4344 | 1.43386 | 1.43339 | 1.43311 | 1.43232 | 1.43161 | 1.43065 | 1.42981 | 1.42869
303.15 K, Wavelength=644 nm | 1.4348 | 1.43405 | 1.43371 | 1.43304 | 1.43277 | 1.43207 | 1.43136 | 1.43031 | 1.42947 | 1.42834
303.15 K, Wavelength=706.5 nm | 1.43312 | 1.43234 | 1.43183 | 1.43136 | 1.43109 | 1.4304 | 1.42989 | 1.42884 | 1.428 | 1.42669
308.15 K, Wavelength=404.7 nm | 1.44755 | 1.44681 | 1.44642 | 1.44583 | 1.44528 | 1.44466 | 1.44403 | 1.44294 | 1.44202 | 1.44072
308.15 K, Wavelength=435.8 nm | 1.44419 | 1.44355 | 1.44296 | 1.44258 | 1.44194 | 1.44132 | 1.4406 | 1.43962 | 1.43868 | 1.43738
308.15 K, Wavelength=486.1 nm | 1.44027 | 1.43972 | 1.43922 | 1.43857 | 1.43806 | 1.43743 | 1.43673 | 1.43585 | 1.43482 | 1.43353
308.15 K, Wavelength=546.1 nm | 1.43699 | 1.43636 | 1.43579 | 1.43522 | 1.4348 | 1.43417 | 1.43347 | 1.43254 | 1.43163 | 1.43033
308.15 K, Wavelength=587.6 nm | 1.43529 | 1.43471 | 1.434 | 1.43353 | 1.4331 | 1.43247 | 1.43187 | 1.43093 | 1.42993 | 1.42865
308.15 K, Wavelength=632.8 nm | 1.43375 | 1.43302 | 1.4324 | 1.432 | 1.43158 | 1.43095 | 1.43034 | 1.42938 | 1.42838 | 1.42712
308.15 K, Wavelength=644 nm | 1.4334 | 1.43286 | 1.4322 | 1.43185 | 1.43123 | 1.43061 | 1.43 | 1.42895 | 1.42803 | 1.42677
308.15 K, Wavelength=706.5 nm | 1.4317 | 1.43089 | 1.4305 | 1.42987 | 1.42955 | 1.42893 | 1.42834 | 1.42729 | 1.42637 | 1.42508
313.15 K, Wavelength=404.7 nm | 1.44615 | 1.44547 | 1.44484 | 1.44421 | 1.44353 | 1.4429 | 1.44213 | 1.4412 | 1.44027 | 1.4391
313.15 K, Wavelength=435.8 nm | 1.4428 | 1.44212 | 1.44145 | 1.44077 | 1.44021 | 1.43956 | 1.43886 | 1.43787 | 1.43694 | 1.43576
313.15 K, Wavelength=486.1 nm | 1.43888 | 1.43822 | 1.43758 | 1.43688 | 1.43634 | 1.43565 | 1.435 | 1.43401 | 1.43313 | 1.43193
313.15 K, Wavelength=546.1 nm | 1.43562 | 1.43502 | 1.4344 | 1.43385 | 1.43312 | 1.43257 | 1.43175 | 1.43082 | 1.42992 | 1.42873
313.15 K, Wavelength=587.6 nm | 1.43392 | 1.43331 | 1.43262 | 1.43194 | 1.43132 | 1.43077 | 1.43006 | 1.42912 | 1.42824 | 1.42705
313.15 K, Wavelength=632.8 nm | 1.43238 | 1.43157 | 1.43095 | 1.43031 | 1.42988 | 1.42924 | 1.42852 | 1.42758 | 1.42673 | 1.42553
313.15 K, Wavelength=644 nm | 1.43203 | 1.43122 | 1.43065 | 1.42997 | 1.42954 | 1.429 | 1.42818 | 1.42724 | 1.42638 | 1.42518
313.15 K, Wavelength=706.5 nm | 1.43035 | 1.42953 | 1.42898 | 1.4284 | 1.42788 | 1.42723 | 1.42653 | 1.42558 | 1.4247 | 1.42352
318.15 K, Wavelength=404.7 nm | 1.44474 | 1.44416 | 1.44346 | 1.44271 | 1.4421 | 1.44134 | 1.44059 | 1.43957 | 1.43859 | 1.43751
318.15 K, Wavelength=435.8 nm | 1.44141 | 1.44072 | 1.44015 | 1.43938 | 1.43872 | 1.438 | 1.43725 | 1.43624 | 1.43526 | 1.43417
318.15 K, Wavelength=486.1 nm | 1.43754 | 1.43671 | 1.43608 | 1.43535 | 1.43468 | 1.43396 | 1.43322 | 1.43243 | 1.43145 | 1.43035
318.15 K, Wavelength=546.1 nm | 1.43429 | 1.43372 | 1.43312 | 1.43243 | 1.43177 | 1.43107 | 1.43022 | 1.42925 | 1.42827 | 1.42718
318.15 K, Wavelength=587.6 nm | 1.43261 | 1.43191 | 1.43127 | 1.43053 | 1.42988 | 1.42918 | 1.42854 | 1.42758 | 1.42659 | 1.42551
318.15 K, Wavelength=632.8 nm | 1.43109 | 1.43037 | 1.42963 | 1.42894 | 1.42826 | 1.42752 | 1.42682 | 1.42606 | 1.42507 | 1.424
318.15 K, Wavelength=644 nm | 1.43075 | 1.43013 | 1.4294 | 1.42884 | 1.42811 | 1.42748 | 1.42668 | 1.42572 | 1.42473 | 1.42365
318.15 K, Wavelength=706.5 nm | 1.42908 | 1.42827 | 1.4276 | 1.42698 | 1.42645 | 1.42575 | 1.425 | 1.42406 | 1.42308 | 1.42199
